Measurements reported in US20050054625A1, “Method for treating diseases using HSP90-inhibiting agents in combination with nuclear export inhibitors” (Kosan Biosciences, Inc., priority 2003, published 2005).

System: DLD-1 cells (human colorectal cancer cells)
Test: Cell viability (MTS) drug combination assay, combination index
Assay type: cell-based
Details: combination with 17-AAG, CI<1 synergism
Experimental: Human colon adenocarcinoma cell line, DLD-1, and human breast adenocarcinoma cell line, SKBr-3, were obtained from American Type Culture Collection (manassas, VA). DLD-1 cells were maintained in RPMI 1640 medium supplemented with 10% fetal bovine serum, and SKBr-3 cells were cultured in McCoy's 5a medium supplemented with 10% fetal bovine serum. 17-DMAG and 17-AAG were obtained using published procedures. Other cytotoxic agents were purchased commercially from suppliers such as Sigrna Chemical Co. (St. Louis, Mo.) and Sequoia Research Products (Oxford, UK).
Cells were seeded in duplicate in 96-well microtiter plates at a density of 5,000 cells per well and allowed to attach overnight. […] Cell viability was determined using the MTS assay (Promega). […] Cell viability was determined by the MTS assay.
Synergism, additivity or antagonism was determined by median effect analysis using the combination index (CI) calculated using Calcusyn (Biosoft, Cambridge, UK). The combination index is defined as follows: CI=[D]1/[Dx]1+[D]2/[Dx]2 The quantities [D]1 and [D]2 represent the concentrations of the first and second drug, respectively, that in combination provide a response of x % in the assay. The quantities [Dx]1 and [Dx]2 represent the concentrations of the first and second drug, respectively, that when used alone provide a response of x % in the assay. […]

## callystatin
17-AAG given 24 hours before the nuclear export inhibitor (48 hours)
  CI value, 17-AAG Pre-Administration: 0.95 ± 0.04
Nuclear export inhibitor alone 24 hours, then 17-AAG for 48 hours
  CI value, 17-AAG Post-Administration: 0.81 ± 0.06
